The text below walks through data of publication PMC3829359 (The Journal of Biological Chemistry, 2021).

The term Kd denotes the equilibrium constant for the complex coming apart.

Experiment [1] concerns the target T1, DC-SIGNR CRD (Homo sapiens, UniProt Q9H2X3).
T1 sequence (Q9H2X3 262-399): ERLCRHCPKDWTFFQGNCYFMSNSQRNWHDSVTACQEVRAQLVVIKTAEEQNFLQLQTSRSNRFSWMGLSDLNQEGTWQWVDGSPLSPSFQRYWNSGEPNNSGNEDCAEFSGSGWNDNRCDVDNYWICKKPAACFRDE
Description: 1H-15N HSQC NMR titration, chemical shift perturbation, […] fit. The class given is binding. To be noted: pH 6.8, 37 °C, 20 mM HEPES-d18, 20 mM NaCl, 4 mM Ca2+, 0.7 mM protein.

Experiment [2] addresses T1, DC-SIGNR CRD. Description: 1H-15N HSQC NMR titration, chemical shift perturbation. It is filed as binding. To be noted: pH 6.8, 37 °C, 20 mM HEPES-d18, 20 mM NaCl, 4 mM Ca2+, 0.7 mM protein; intermediate exchange, severe line broadening, KD could not be estimated.

As for `OC[C@H]1O[C@H](OC[C@H]2OC(O)[C@@H](O)[C@@H](O[C@H]3O[C@H](CO)[C@@H](O)[C@H](O)[C@@H]3O)[C@@H]2O)[C@@H](O)[C@@H](O)[C@@H]1O` (stereo partly drawn) [Man3], the Kd in experiment [1] was 2.04 ± 0.54 mM.
Regarding `CC(=O)N[C@H]1C(O)O[C@H](CO)[C@@H](O[C@@H]2O[C@H](CO[C@H]3O[C@H](CO[C@H]4O[C@H](CO)[C@@H](O)[C@H](O)[C@@H]4O[C@H]4O[C@H](CO)[C@@H](O)[C@H](O)[C@@H]4O)[C@@H](O)[C@H](O[C@H]4O[C@H](CO)[C@@H](O)[C@H](O)[C@@H]4O[C@H]4O[C@H](CO)[C@@H](O)[C@H](O)[C@@H]4O)[C@@H]3O)[C@@H](O)[C@H](O[C@H]3O[C@H](CO)[C@@H](O)[C@H](O)[C@@H]3O[C@H]3O[C@H](CO)[C@@H](O)[C@H](O)[C@@H]3O[C@H]3O[C@H](CO)[C@@H](O)[C@H](O)[C@@H]3O)[C@@H]2O)[C@@H]1O` (stereo partly drawn) [Man9GlcNAc], the “1H-15N HSQC NMR titration, chemical shift perturbation” value in experiment [2] is “binding of Man9GlcNAc caused substantial broadening and disappearance of a number of CRD peaks”.
Regarding `OC[C@H]1O[C@H](OC[C@H]2O[C@H](OC[C@H]3OC(O)[C@@H](O)[C@@H](O[C@H]4O[C@H](CO)[C@@H](O)[C@H](O)[C@@H]4O)[C@@H]3O)[C@@H](O)[C@@H](O[C@H]3O[C@H](CO)[C@@H](O)[C@H](O)[C@@H]3O)[C@@H]2O)[C@@H](O)[C@@H](O)[C@@H]1O` (stereo partly drawn) [Man5], the Kd in experiment [1] came out at 2.2 ± 0.43 mM.
